# Data taken from patent US6479456B1, “Antimicrobial perfume compositions” (Firmenich SA, priority 2000, dated 2002).
# Tested on: Pityrosporum ovale
# Experiment: agar surface coating test (ASCT) against Pityrosporum ovale, in shampoo
# Assay type: cell-based
# Details: shampoo containing Octopirox compared with a shampoo without Octopirox
# Description: Whatever the chosen test according to the invention, a culture of the selected germ was set up on Petri dishes under the same test conditions in parallel with a control solution composed in general of sterilised water or of a saline solution. After the period(s) of incubation considered according to the selected test, the surface area of the dish which was free of bacteria and/or fungi was measured for both the tested compound and the control solution. By calculating a surface ratio, a relative surface value, enabling the selection of the compounds with an antimicrobial activity of at least 80% in one of these tests of effectiveness, was defined. The following germs were used in these methods: Pityrosporum ovale, Staphylococcus aureus, Staphylococcus epidermidis, Escherichia coli, Pseudomonas aeruginosa, Candida albicans, Trichophyton mentagrophytes. […]
# The tested product and the agar surface are again left in contact for 30 s under the same conditions as above, followed by the stage of rinsing and of 24-h incubation at ambient temperature, and the antimicrobial evolution is observed again after this second phase of the test. […] The microbicidal or microbiostatic action can be established after each phase of the test, and recorded. […]
smiles,measurement,value
"Cc1cc(CC(C)CC(C)(C)C)n(O)c(=O)c1.NCCO (stereo not shown) [Octopirox®, Piroctone olamine]",reduction of growth of P. ovale,60%
